Numbered stars: 1 amine (or outer) side, 2 acyl side, 3 side chain; on linkers, the order of the positions; unused ones are H or OH. Bridge positions count the residues as written; N and C are the ends. Square brackets hold non-standard residues; d marks the D form. Peptide text beside a SMILES is read from it. I, II: the chains in the order shown. Actinocin(9to1) = Cc1c2oc3c(C)ccc(C(=O)[*:1])c3nc-2c(C(=O)[*:2])c(N)c1=O; NMeV = CN[C@H](C(=O)O)C(C)C; Sar = CNCC(=O)O
Test system: human cardiac fibroblasts (hCF)
Test: Cyclic mechanical stretch of human cardiac fibroblasts: endoglin mRNA (qRT-PCR), endoglin protein (Western blot), sEng release (ELISA)
Format: cell-based
Settings: for stretch-induced endoglin mRNA expression: pre-treated 1 μM for 2 hours prior to mechanical stretch (10% cyclic stretch, 1 Hz), qRT-PCR
Experimental: As a first step towards understanding increased endoglin expression in heart failure, we exposed cardiac fibroblasts to cyclic mechanical stretch in vitro using a FlexCell apparatus. Briefly, human cardiac fibroblasts (hCF) were cultured onto silastic membranes and exposed to 10% cyclic stretch (1 Hz) for various time points in fibroblast basal media (FBM). We identified a rapid increase in sEng release by enzyme-linked immunosorbent assay (ELISA), followed by increased endoglin mRNA expression by quantitative real-time PCR (qRT-PCR) (FIG. 7).
To begin exploring the mechanism underlying stretch-induced endoglin expression, we pre-treated cultured hCF in FBM with actinomycin-D (Act-D; 1 μM), SB-431542 (an ALK-5 inhibitor; 1 μM), or anti-TGFβ1 antibodies (10 ng/mL, R&D Systems) for 2 hours prior to mechanical stretch. […] Furthermore, ERK-inhibition with 10 μM PD98059 attenuated stretch-induced mEng protein expression and sEng release by Western blot and ELISA (FIG. 9).

[1] = hCF in FBM, pre-treated 1 μM for 2 hours prior to mechanical stretch, ELISA

Row | SMILES | stretch-induced sEng release (hCF, 10 μM, ELISA) | stretch-induced mEng protein expression (hCF, 10 μM, Western blot) | stretch-induced endoglin mRNA expression (hCF in FBM) | sEng release [1] | endoglin protein expression (hCF in FBM, pre-treated 1 μM for 2 hours prior to mechanical stretch)
1 | COc1cccc(-c2cc(=O)c3ccccc3o2)c1N [PD98059] | attenuated | attenuated | – | – | –
2 | NC(=O)c1ccc(-c2nc(-c3ccc4c(c3)OCO4)c(-c3ccccn3)[nH]2)cc1 [SB-431542] | – | – | partially attenuated | failed to inhibit | –
3 | Cc1c2oc3c(C)ccc(C(=O)N[C@@H]4C(=O)N[C@H](C(C)C)C(=O)N5CCC[C@H]5C(=O)N(C)CC(=O)N(C)[C@@H](C(C)C)C(=O)O[C@@H]4C)c3nc-2c(C(=O)N[C@@H]2C(=O)N[C@H](C(C)C)C(=O)N3CCC[C@H]3C(=O)N(C)CC(=O)N(C)[C@@H](C(C)C)C(=O)O[C@@H]2C)c(N)c1=O [Act-D, actinomycin-D] (I: T[dV]P[Sar][NMeV] / II: T[dV]P[Sar][NMeV]; ester I:1-I:C, II:1-II:C; linker I:N-II:N via Actinocin(9to1)) | – | – | abolished | minimal effect | minimal effect
